According to patent US20250303006A1, “BIOCOMPATIBLE ANTISEPTIC COMPOSITION CONTAINING 9-HYDROXYCALABAXANTHONE AND/OR RELATED XANTHONES” (UNIVERSITAT DE LES ILLES BALEARS, priority 2022, published 2025):

Columns and labels:
S. aureus = format: cell-based
Protocol: S. aureus ATCC 29213 was grown from frozen stocks in Luria-Bertani (LB) broth (Scharlab), at 37° C. under aerobic conditions in an orbital shaker (180 rpm). After overnight incubation, 1 mL of bacterial suspensions were incubated with different concentrations of CHX (0.01, 0.005, 0.003, 0.001, 0.0001%) and HCX (0.003, 0.002, 0.001, 0.0002, 0.00002%) for 3 hours at 37° C. under aerobic conditions in an orbital shaker (180 rpm). Bacterial suspension without treatment served as negative control (C−). The optical density (OD) was measured at 600 nm at 0 h and 3 h to determine bacterial proliferation (PowerWave Ht). The bacterial growth rate (μ) was calculated during the exponential growth phase following the equation ln ODt−ln OD0=μ×(t−t0) (n=4). The live/Dead ratio of bacteria was determined using the LIVE/DEAD BacLight bacterial viability kit (Invitrogen), following the manufacturer's instructions. The assays were carried out in triplicate.
The bacteria S. aureus was cultured and treated with different commercial antiseptic gels and HA hydrogel with […] HCX. The gels were tested at a concentration of 5% (v/v), and the experiment was run like in experiment 7, section 7.1.
16.1. […]

[1] = system: human gingival fibroblast cells; assay: LDH cytotoxicity in immortalized human gingival fibroblasts; format: cell-based
Protocol: Cells were seeded in 48-well plates at a density of 2×10^4 cells/well. When the cells reached confluence, they were treated with different concentrations of HCX, and cytotoxicity was determined.
48 hours after seeding the iHGF cells in 48-well plates, cell inflammation was induced by means of adding 1 μg/ml of P. gingivalis lipopolysaccharide (LPS) (InvivoGen, San Diego, CA, USA) and the cells were treated with different concentrations of HCX (0.00002, 0.0002, 0.002%) in a fibroblast medium with 50 μg/ml of ascorbic acid (Sigma-Aldrich, St. Louis, MO, USA) for 48 hours. Images of the cells were taken with a bright field inverted microscope (Nikon Eclipse TS100) before treatment and 24 hours and 48 hours after treatment.
To estimate the cytotoxicity of the different concentrations of HCX, the presence of lactate dehydrogenase (LDH) in the culture media 48 h after pro-inflammatory stimulation with LPS and treatment with HCX was used as the cell death index. Following the manufacturer's instructions (Cytotoxicity Detection kit, Roche Diagnostics, Mannheim, Germany), LDH activity was determined spectrophotometrically after a 30-minute incubation at room temperature (RT) of 50 μl of culture media and 50 μl of the reaction mixture, measuring nicotinamide adenine dinucleotide (NADH) oxidation at 490 nm in the presence of pyruvate. Results were presented in relation to LDH activity of the media of the cells seeded without treatment (negative control, 0% cell death) and in relation to cells treated with 1% Triton X-100 (positive control, 100% death) using the following equation: Cytotoxicity (%)=[(expected value−negative control)/(positive control−negative control)]×100.
Different hydrogel formulations with and without 0.05% of HCX (HA, GelMa, Alginate and HPMC) and commercial gel containing 0.2% chlorhexidine and unmodified HA (Periokin Hyaluronic 1%, Laboratorios Kin, Commercial HA 0.2% CHX) were used for studies with gingival fibroblasts and S. epidermidis. Cells and bacteria without hydrogels served as negative control (C−). Gels at a concentration of 5% (v/v) were used for cell and bacterial studies.
Immortalized human gingival fibroblasts were cultured like in experiment 1 of section 1.2. The cells were treated with different hydrogel formulations with and without 0.05% of HCX (HA, GelMa, Alginate and HPMC) and commercial gel containing 0.2% chlorhexidine and unmodified HA (Periokin Hyaluronic 1%, Laboratorios Kin, commercial HA 0.2% CHX) in a fibroblast medium for 24 hours (n=4). Cell cytotoxicity was measured, like in experiment 1 of section 1.4.
16.1. […]
Immortalized human gingival fibroblasts were cultured like in experiment 1 of section 1.2. […] Cell cytotoxicity was measured, like in experiment 1 of section 1.4.

## CC(C)=CCc1c(O)cc(O)c2c(=O)c3cc4c(c(O)c3oc12)OC(C)(C)C=C4 [FXA, Formoxanthone A]
S. aureus; S. aureus 3 h together with LDH cytotoxicity in gingival fibroblasts 24 h
  concentration with antibacterial effect without cytotoxicity: 0.001%

## O=c1c2cc(O)c(O)cc2oc2cc(O)cc(O)c12 [NRT, norathryol, reference compound]
[1]; all concentrations tested (0.4-77 μM), 24 h
  biocompatibility for the cells (LDH cytotoxicity): biocompatible
S. aureus; all concentrations tested (0.4-77 μM), 3 h
  antibacterial effect: none of them were antibacterial

## COc1c(O)cc2oc3cc(O)c(CC=C(C)C)c(O)c3c(=O)c2c1CC=C(C)C [aMG, α-Mangostin]
[1]; 0.002% in solution
  toxicity to cells: already toxic
